Experimental data: patent publication US5212176A, “R(+)-terazosin” (Abbott Laboratories, priority 1990, dated 1993)
Counter-ions that a name gives are not always drawn.

How the values were obtained:
α2 adrenoceptor = biological target: T1, α2 adrenoceptor (Rattus norvegicus, UniProt P22909); assay: α2-mediated norepinephrine release / clonidine antagonism in the stimulated rat vas deferens model; parameters: species or system male Wistar rats
T1 construct: Vas deferens tissue from male Wistar rats; from tissue; host or cells: isolated vas deferens of male Wistar rats
T1 sequence (P22909 1-465): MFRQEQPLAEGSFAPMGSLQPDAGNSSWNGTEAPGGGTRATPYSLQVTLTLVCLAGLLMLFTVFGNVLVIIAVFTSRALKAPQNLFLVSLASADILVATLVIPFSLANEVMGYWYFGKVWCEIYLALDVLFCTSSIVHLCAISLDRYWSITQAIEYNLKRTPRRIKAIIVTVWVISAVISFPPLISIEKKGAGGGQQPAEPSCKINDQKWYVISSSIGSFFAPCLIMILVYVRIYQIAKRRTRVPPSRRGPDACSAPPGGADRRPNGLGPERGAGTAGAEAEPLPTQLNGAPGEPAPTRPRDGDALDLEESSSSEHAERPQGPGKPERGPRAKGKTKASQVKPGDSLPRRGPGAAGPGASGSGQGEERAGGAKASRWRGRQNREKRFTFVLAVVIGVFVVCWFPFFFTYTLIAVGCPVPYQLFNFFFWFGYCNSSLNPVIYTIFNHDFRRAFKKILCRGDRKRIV
Experimental: The effect upon α2 -stimulated norepinephrine release of R(+)-terazosin and the S(-)-enantiomer and racemic compound were evaluated in the stimulated rat vas deferens model. Vas deferens tissue from male Wistar rats was cleaned of extraneous tissue and mounted between platinum stimulating electrodes and suspended in a tissue bath. The tissues were stimulated transmurally until the preparation stabilized, generally after about 60-80 minutes. After the twitch response became constant, a stimulus was applied at a frequency of 0.1 Hz for the duration of the dose-responsestudy.
Clonidine was used as a control for inhibiting the twitch response, with 10 minute contact times at increasing doses until the stimulated response was attenuated to zero. The stimulus was then reduced to once every five minutes and the tissue washed until the twitch response was restored. After this, the 0.1 Hz signal was again applied and clonidine was administered together with test compound. All responses were calculated as percent reduction in the twitch response.
(The pA2 values is the negative logarithm of the equilibrium dissociation constant for the antagonist-receptor complex, calculated from pharmacological functional data, and is a measure of the affinity of the antagonist at the particular receptor.)

α1 adrenergic receptors = biological target: T2, α1 adrenergic receptors (Rattus norvegicus, UniProt P15823); assay: α1 adrenergic receptor binding: competition with tritiated prazosin in rat liver membranes; parameters: species or system male Sprague-Dawley rats; details: [3H]prazosin 0.2 nM, 22° C., 50 min, mean, read-out: α1 Receptor pKI (converted)
T2 construct: cellular membranes containing α-receptors; from tissue; host or cells: liver membranes of male Sprague-Dawley rats
T2 sequence (P15823 1-515): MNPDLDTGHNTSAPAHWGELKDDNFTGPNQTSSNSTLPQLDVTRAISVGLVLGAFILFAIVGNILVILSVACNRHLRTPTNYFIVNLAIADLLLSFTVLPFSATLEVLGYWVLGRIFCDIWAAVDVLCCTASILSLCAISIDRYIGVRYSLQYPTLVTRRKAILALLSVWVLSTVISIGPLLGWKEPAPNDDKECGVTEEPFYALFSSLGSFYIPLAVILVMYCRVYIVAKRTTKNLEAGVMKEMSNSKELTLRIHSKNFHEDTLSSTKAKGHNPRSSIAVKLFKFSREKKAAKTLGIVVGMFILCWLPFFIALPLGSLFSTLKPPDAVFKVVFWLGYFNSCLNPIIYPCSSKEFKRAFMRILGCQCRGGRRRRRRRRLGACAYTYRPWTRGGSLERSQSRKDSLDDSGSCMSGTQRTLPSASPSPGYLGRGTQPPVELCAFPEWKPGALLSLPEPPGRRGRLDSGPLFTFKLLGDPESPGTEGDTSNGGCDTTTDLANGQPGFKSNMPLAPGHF
Experimental: (§1) The technique is well known and described in the literature. The pKI, or negative logarithm of the binding equilibrium constant, is determined from the experimental data for each receptor and the degree of selectivity of the compound in question for α1 over α2 receptors can be measured by the antilogarithm of the differences between the pKI values for the two receptors.
(§2) α-Adrenergic binding data were obtained for the two enantiomers of terazosin and the racemic compound. Tissue from the liver and cerebral cortex of male Sprague-Dawley rats was homogenized in ice-cold assay buffer (Tris-HCl, 50 mM, pH 7.0 and 22° C.). After centrifugation at 48,000 g for ten minutes the resulting pellets, containing cellular membranes containing α-receptors, were resuspended in 20 volumes of assay buffer and recentrifuged for ten minutes at 48,000 g. Liver membranes were diluted 200-fold and cerebral cortex tissues 50-fold with assay buffer.
(§3) Binding to α1 adrenergic receptors was characterized with liver membranes in competition studies using tritiated prazosin (82 Ci/mmol, DuPont NEN; 0.2 nM) and six concentrations of each test compound at half-log incremental concentrations. Binding to α2 adrenergic receptors was characterized in cerebral cortex tissue using tritiated rauwolscine (82.2 Ci/mMol, DuPont NEN; 0.5 nM) and six concentrations of competing test compound. Equilibrium binding was characterized after a 50 minute incubation period at 22° C.
(§4) where [L] is the concentration of radioligand and KD is the equilibrium dissociation constant of the radioligand for the receptor.

α2 adrenergic receptors = assay: α2 adrenergic receptor binding: competition with tritiated rauwolscine in rat cerebral cortex tissue; parameters: species or system male Sprague-Dawley rats; details: [3H]rauwolscine 0.5 nM, 22° C., 50 min, mean
Experimental: as §1, §2, §3, §4

[1] = acute toxicity, intravenous administration in adult male mice; assay type: in vivo; details: mouse, in vivo, adult male mice
Experimental: (§5) The acute toxicities of the two enantiomeric forms of terazosin and the racemic compound were tested in adult male mice by intravenous administration, and the data appear in Table 2.

adult male mice = assay: as above; assay type: in vivo; details: mice, R(+) vs S(-)
Experimental: as §5

[2] = system: spontaneously hypertensive rat; assay: antihypertensive effects in the spontaneously hypertensive rat model (blood pressure and heart rate); assay type: in vivo; details: oral, 0.1 to 10.0 mg/kg; 1, 5, 8, and 24 hours
Experimental: The antihypertensive effects of R(+)-, S(-)-, and racemic terazosin were tested in several well-controlled experiments in the spontaneously hypertensive rat model. All three materials were dissolved in vehicle (0.2% methylcellulose) and administered orally at doses ranging from 0.1 to 10.0 mg/kg of body weight. As a control, the vehicle was administered orally. The compounds were administered in a volume of 2.0 ml/kg. All doses of the compound and vehicle were tested simultaneously in groups of eight to sixteen rats, randomly grouped.
The arterial and systolic blood pressure and heart rate were measured thirty minutes prior to and at intervals of 1, 5, 8, and 24 hours following administration of the test compounds. […] While not holding to one theory to the exclusion of others, it is believed that the tachycardia associated with administration of the S(-)-enantiomer is due to the greater affinity of the S(-)-enantiomer for binding at the α2 adrenergic receptor and the lack of tachycardia associated with administration of the R(+)-enantiomer with its low affinity for the α2 receptors.

Structure (SMILES): Clc1cccc(Cl)c1N=C1NCCN1 [clonidine, reference compound]
- effect on norepinephrine release and contractile (twitch) response (α2 adrenoceptor; rat vas deferens, 0.1 Hz stimulation, agonist control): inhibits norepinephrine release from the adrenergic nerve endings and thus inhibits the contractile response of tissue

Structure (SMILES): COc1cc2nc(N3CCN(C(=O)[C@H]4CCCO4)CC3)nc(N)c2cc1OC [R(+), R(+)-2-[4-[(tetrahydro-2-furanyl)carbonyl]-1-piperazinyl]-6,7-dimethoxy-4-quinazolinamine hydrochloride]
- Ki (α1 adrenergic receptors): 0.964 nM
- α2 Receptor pKI (α2 adrenergic receptors): 5.938 ± 0.178 - log M
- LD50 [1]: 307 mg/kg
- LD50 increase over the corresponding S(-)-enantiomer (adult male mice): 50%
- increase in heart rate (tachycardia) [2]: consistently did not produce an increase in heart rate (tachycardia)
- pA2 (measurability) (α2 adrenoceptor; rat vas deferens): No pA2 values could be measured
- α2-adrenoreceptor affinity and effect on α2-adrenoreceptor mediated norepinephrine release (α2 adrenoceptor; tested up to 3.0 μmolar): devoid of α2 -adrenoreceptor affinity and thus failed to affect α2 -adrenoreceptor mediated norepinephrine release

Structure (SMILES): COc1cc2nc(N3CCN(C(=O)[C@@H]4CCCO4)CC3)nc(N)c2cc1OC [S(-), S(-)-2-[4-[(tetrahydro-2-furanyl)carbonyl]-1-piperazinyl]-6,7-dimethoxy-4-quinazolinamine]
- Ki (α1 adrenergic receptors): 0.643 nM
- α2 Receptor pKI (α2 adrenergic receptors): 7.036 ± 0.199 - log M
- LD50 [1]: 205 mg/kg
- increase in heart rate (tachycardia) [2]: tachycardia was consistently observed

Structure (SMILES): COc1cc2nc(N3CCN(C(=O)C4CCCO4)CC3)nc(N)c2cc1OC (racemic) [Racemic, 2-[4-[(tetrahydro-2-furanyl)carbonyl]-1-piperazinyl]-6,7-dimethoxy-4-quinazolinamine, reference compound]
- Ki (α1 adrenergic receptors): 0.643 nM
- α2 Receptor pKI (α2 adrenergic receptors): 6.569 ± 0.129 - log M
- LD50 [1]: 248 mg/kg
- increase in heart rate (tachycardia) [2]: tachycardia was consistently observed
